# Laboratory results taken from patent US8415308B2, “1′-substituted-carba-nucleoside prodrugs for antiviral treatment” (Gilead Sciences, Inc., priority 2010, dated 2013).
# Target: T1, HCV Δ21 NS5b polymerase (Hepatitis C virus genotype 1b, UniProt Q9WMX2)
# T1 construct: 75 nM HCV Δ21 NS5b polymerase
# Experiment: HCV IC50 determination, NS5b polymerase assay
# Format: biochemical
# Conditions: not given
# Procedure: Assay Protocol: NS5b polymerase assay (40 μL) was assembled by adding 28 μL polymerase mixture (final concentration: 50 mM Tris-HCl at pH 7.5, 10 mM KCL, 5 mM MgCl2, 1 mM DTT, 10 mM EDTA, 4 ng/μL of RNA template, and 75 nM HCV Δ21 NS5b polymerase) to assay plates followed by 4 μL of compound dilution. The polymerase and compound were pre-incubated at 35° C. for 10 minute before the addition of 8 μL of nucleotide substrate mixture (33P-α-labeled competing nucleotide at KM and 0.5 mM of the remaining three nucleotides). The assay plates were covered and incubated at 35° C. for 90 min. Reactions were then filtered through 96-well DEAE-81 filter plates via vacuum. The filter plates were then washed under vacuum with multiple volumes of 0.125 M NaHPO4, water, and ethanol to remove unincorporated label. Plates were then counted on TopCount to assess the level of product synthesis over background controls. The IC50 value is determined using Prism fitting program.
row,SMILES,IC50
1,C[C@@]1(O)[C@H](O)[C@@H](COP(=O)(O)OP(=O)(O)OP(=O)(O)O)O[C@@]1(C#N)c1ccc2c(N)ncnn12 [Compound 7],< 1 µM

# System: Replicon cells
# Experiment: HCV EC50 determination in replicon cells (luciferase)
# Format: cell-based
# Conditions: Hepatitis C virus, 72 h
# Procedure: Replicon cells were seeded in 96-well plates at a density of 8×10^3 cells per well in 100 μL of culture medium, excluding Geneticin. Compound was serially diluted in 100% DMSO and then added to the cells at a 1:200 dilution, achieving a final concentration of 0.5% DMSO and a total volume of 200 μL. Plates were incubated at 37° C. for 3 days, after which culture medium was removed and cells were lysed in lysis buffer provided by Promega's luciferase assay system. Following the manufacturer's instruction, 100 μL of luciferase substrate was added to the lysed cells and luciferase activity was measured in a TopCount luminometer.
# The specific activity observed may vary according to and depending on the particular replicon tested, the active compound selected or whether there are present pharmaceutical carriers, as well as the type of formulation and mode of administration employed, and such expected variations or differences in the results are contemplated in accordance with practice of the present invention.
row,SMILES,EC50
1,CC(C)OC(=O)[C@H](C)NP(=O)(OC[C@H]1O[C@@](C#N)(c2ccc3c(N)ncnn23)[C@](C)(O)[C@@H]1OC(=O)C(C)C)Oc1ccccc1 (stereo partly drawn) [Compound 8],0.14 to 0.52 µM
2,CC(C)OC(=O)[C@H](C)N[P@](=O)(OC[C@H]1O[C@@](C#N)(c2ccc3c(N)ncnn23)[C@](C)(O)[C@@H]1OC(=O)C(C)C)Oc1ccccc1 [Compound 8A],0.096 to 0.36 µM
3,CC(C)OC(=O)[C@H](C)N[P@@](=O)(OC[C@H]1O[C@@](C#N)(c2ccc3c(N)ncnn23)[C@](C)(O)[C@@H]1OC(=O)C(C)C)Oc1ccccc1 [Compound 8B],0.46 to 1.9 µM
4,CC(C)OC(=O)[C@H](C)NP(=O)(OC[C@H]1O[C@@](C#N)(c2ccc3c(N)ncnn23)[C@](C)(O)[C@@H]1O)Oc1ccccc1 (stereo partly drawn) [Compound 6],0.48 to 1.8 µM

# Same assay, conditions: Hepatitis C virus, 72 h; replicon cells, 3 days, luciferase activity; read-out: EC50
row,SMILES,EC50
1,C[C@@]1(O)[C@H](O)[C@@H](CO)O[C@@]1(C#N)c1ccc2c(N)ncnn12 [Compound 5],> 89 µM
2,CC(C)OC(=O)[C@H](C)NP(=O)(N[C@@H](C)C(=O)OC(C)C)OC[C@H]1O[C@@](C#N)(c2ccc3c(N)ncnn23)[C@](C)(O)[C@@H]1O [Compound 61],51 µM
3,CC(C)OC(=O)[C@H](C)NP(=O)(N[C@@H](C)C(=O)OC(C)C)OC[C@H]1O[C@@](C#N)(c2ccc3c(N)ncnn23)[C@](C)(O)[C@@H]1OC(=O)C(C)C [Compound 64],5.38 µM
4,CC(=O)O[C@@H]1[C@@H](COP(=O)(N[C@@H](C)C(=O)OC(C)C)N[C@@H](C)C(=O)OC(C)C)O[C@@](C#N)(c2ccc3c(N)ncnn23)[C@]1(C)O [Compound 65],8.4 µM
